Measured values published in patent US11414377B2, “Modulator of metabotropic and ionotropic transmembrane receptors and use thereof” (IBD THERAPEUTICS LLC, priority 2018, dated 2022).

Assays:
kappa opioid receptor = kappa opioid receptor (Homo sapiens, UniProt P41145); assay: Kappa-opioid receptor radioligand displacement ([3H]U69593); assay type: binding
human NK1R = biological target: T1, human NK1R (Homo sapiens, UniProt P25103); assay: Effect on activity of tachykinin receptor type 1 (intracellular calcium, fluorescence); assay type: cell-based; conditions: U373 cells expressing human NK1R, agonist [Sar9,Met(O2)11]-SP 1 nM, read-out: IC50, antagonist of tachykinin receptor type 1
T1 construct: U373 cells expressing human NK1R were used in the experiment; endogenous in cells; host or cells: U373 cells
Procedure: Compound I was dissolved in DMSO to a concentration of 100 mM; then the stock solution was serially diluted with DMSO. The maximal start concentration of substance is 100 μM. The effect was determined at 8 concentrations of test compound, each concentration was investigated twice. U373 cells expressing human NK1R were used in the experiment, said cells after the preincubation with an agonist [Sar9,Met(O2)11]-SP (1 nM) were incubated with Compound I. The activity of receptors was determined by the intracellular calcium concentration using fluorescence spectroscopy (Glia. 1992; 6(2):89-95).

male balb/c mice = assay: Motility of the gastrointestinal tract in vivo (activated carbon transit); conditions: for The time of ejection of activated carbon: intact 73.8 ± 3.7
Procedure: The effect of Compound I on the motility of the GIT was studied by a standard procedure (Li Y. Y., Li Y. N., Ni J. B., Chen C. J., Lv S., Chai S. Y., Wu R. H., Yüce B., Storr M. Involvement of cannabinoid-1 and cannabinoid-2 receptors in septic ileus//Neurogastroenterol Motil. 2010. V. 22. P. 350-388). The study was carried out on male balb/c mice, the individual weight of which deviates from the mean value within the sex of no more than ±20%. The animals were given the intragastric administration of a solution of activated carbon (50 mg/ml, in 10 ml/kg) and the rate (in minutes) of the movement of the activated carbon on the intestine of animals was evaluated. Compounds I was administered once intragastrically 1 hour prior to administration of activated carbon. As the comparative preparations, hyoscin butyl bromide (Buscopan) at a dose of 3 mg/kg, trimebutine (Trimedat) at a dose of 33 mg/kg, mebeverine (Duspatalin) at a dose of 30 mg/kg were used. The obtained data were checked using the Grubb's test for the presence of the largest or smallest abnormal observation (ejection) in the sample. Values determined “to be eliminated” in this test were not used for further assay. For all data, descriptive statistics was used: a mean value (M) and standard error of the mean value (m) were counted up. The normality of distribution of the values obtained in the course of the experiment was checked with the aid of the Kolmogorov-Smirnov test. In the case of normal distribution, Student's t-test (t-test) was used to evaluate the inter-group distinctions. In the case of the distribution that is other than the normal one for the comparison of several groups, the Kruskall-Wallis test (with Dann's post hoc test) was used. Distinctions were determined at 5% at a level of confidence.

[1] = Solubility remark in acute toxicity dosing; assay type: physicochemical; conditions: solvent 0.1% Tween-80 solution in water; 2000 mg/kg dose given in 2 administrations
Procedure: (§1) Compound I was administered to rats and mice intragastrically at a dose of 5000 mg/kg, intraperitoneally—at a dose of 2000 mg/kg. Control groups (female and male objects) were received a solvent (0.1% Tween-80 solution in water).

male and female mice = assay: Acute toxicity at single administration, mice; assay type: in vivo; conditions: for Body weight gain / Death of animals: male and female; for Death of animals: 14 days observation
Procedure: The acute toxicity study was performed on 24 male and 24 female rats, and also on 24 male and 24 female mice. Before the administration of the Compound I, the body weight of the animals was recorded, after 1 hour of the administration, the state of the experimental animals was observed. Then, the body weights of rats and mice were recorded daily for 14 days after the administration of the substance, and the examination was carried out to detect the cases of death and abnormality in the state of the animals.
as §1

T1 sequence (P25103 whole entry): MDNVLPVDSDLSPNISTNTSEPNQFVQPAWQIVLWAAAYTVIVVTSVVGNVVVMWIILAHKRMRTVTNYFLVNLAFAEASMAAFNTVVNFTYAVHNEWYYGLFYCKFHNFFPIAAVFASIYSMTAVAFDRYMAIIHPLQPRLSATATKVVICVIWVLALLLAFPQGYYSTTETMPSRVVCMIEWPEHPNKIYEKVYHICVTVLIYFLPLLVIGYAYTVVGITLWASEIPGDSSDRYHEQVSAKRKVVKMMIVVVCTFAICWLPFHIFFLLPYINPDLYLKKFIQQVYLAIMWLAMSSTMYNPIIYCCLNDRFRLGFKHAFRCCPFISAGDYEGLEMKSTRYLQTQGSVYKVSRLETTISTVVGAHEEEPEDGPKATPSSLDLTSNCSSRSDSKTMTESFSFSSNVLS
kappa opioid receptor, sequence (P41145 whole entry): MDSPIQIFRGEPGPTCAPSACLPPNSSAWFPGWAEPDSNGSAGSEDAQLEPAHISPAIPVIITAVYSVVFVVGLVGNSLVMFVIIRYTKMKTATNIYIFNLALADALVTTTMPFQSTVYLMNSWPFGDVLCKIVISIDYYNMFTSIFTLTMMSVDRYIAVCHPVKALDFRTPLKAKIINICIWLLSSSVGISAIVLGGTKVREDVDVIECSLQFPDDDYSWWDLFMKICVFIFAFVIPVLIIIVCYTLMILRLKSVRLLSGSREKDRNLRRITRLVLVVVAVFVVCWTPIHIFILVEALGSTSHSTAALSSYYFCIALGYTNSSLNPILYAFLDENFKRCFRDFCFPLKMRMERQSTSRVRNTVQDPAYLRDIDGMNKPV

With O=C(Cc1ccc(O)cc1)N[C@@H](Cc1ccccc1)C(=O)NCCc1ccccc1 [Compound I, 2-phenylethylamide N-(p-hydroxyphenylacetyl)phenylalanine] the IC50 (kappa opioid receptor) was 7.1 µM, the IC50 (human NK1R) was 59 µM and the “The time of ejection of activated carbon” value (male balb/c mice; 1.5 mg/kg once intragastrically 1 hour prior to activated carbon) was 108.7 ± 9.28 min. For the same molecule, the “The time of ejection of activated carbon” value (male balb/c mice; 3 mg/kg once intragastrically 1 hour prior to activated carbon) was 130.4 ± 11.42 min, the “The time of ejection of activated carbon” value (male balb/c mice; 7.5 mg/kg once intragastrically 1 hour prior to activated carbon) was 123.4 ± 11.43 min and the “The time of ejection of activated carbon” value (male balb/c mice; 15 mg/kg once intragastrically 1 hour prior to activated carbon) was 147.6 ± 8.94 min. The “Increase of the time of activated carbon evacuation” value (male balb/c mice; 1.5-15 mg/kg intragastrically, versus intact) was 1.5-2 times, the Solubility [1] was “poor” and the “Differences in the spontaneous behaviour, responses to the caused reactions” value (male and female mice; intragastrically 5000 mg/kg, intraperitoneally 2000 mg/kg) was “not observed”. For the same molecule, the Body weight gain (male and female mice; intragastrically 5000 mg/kg) was “lag in body weight gain”, the Death of animals (male and female mice; intragastrically 5000 mg/kg) was “did not cause death of animals” and the Body weight gain (male and female mice; intraperitoneally 2000 mg/kg) was “lag in body weight gain”. For the same molecule, the Death of animals (male and female mice; intraperitoneally 2000 mg/kg) was “did not cause death of animals”.
